Type in all cases: functional
One experiment deals with Citrobacter freundii. In words: Antimicrobial activity against Citrobacter freundii obtained from patient with complicated intra-abdominal infection assessed as percent susceptible isolates by agar dilution method.
A further experiment relates to Klebsiella aerogenes. In words: Antimicrobial activity against Enterobacter aerogenes obtained from patient with complicated intra-abdominal infection assessed as percent susceptible isolates by agar dilution method.
The subject of a further experiment is Enterobacter cloacae. Kind of experiment: Antimicrobial activity against Enterobacter cloacae obtained from patient with complicated intra-abdominal infection assessed as percent susceptible isolates by agar dilution method.
The test system of experiment [1] is Escherichia coli. In words: Antimicrobial activity against Escherichia coli obtained from patient with complicated intra-abdominal infection assessed as percent susceptible isolates by agar dilution method.
Experiment [2] deals with Escherichia coli. In words: Antimicrobial activity against extended-spectrum beta-lactamase-positive Escherichia coli obtained from patient with complicated intra-abdominal infection assessed as percent susceptible isolates by agar dilution method.
Experiment [3] has as its system Escherichia coli. In words: Antimicrobial activity against extended-spectrum beta-lactamase-negative Escherichia coli obtained from patient with complicated intra-abdominal infection assessed as percent susceptible isolates by agar dilution method.
For experiment [4], the system named is Klebsiella pneumoniae. In words: Antimicrobial activity against Klebsiella pneumoniae assessed as percent susceptible isolates by agar dilution method.
Experiment [5] concerns Klebsiella pneumoniae. In words: Antimicrobial activity against extended-spectrum beta-lactamase-positive Klebsiella pneumoniae assessed as percent susceptible isolates by agar dilution method.
Experiment [6] has as its system Klebsiella pneumoniae. In words: Antimicrobial activity against extended-spectrum beta-lactamase-negative Klebsiella pneumoniae assessed as percent susceptible isolates by agar dilution method.
The test system of the next experiment is Klebsiella oxytoca. Kind of experiment: Antimicrobial activity against extended-spectrum beta-lactamase-positive Klebsiella oxytoca assessed as percent susceptible isolates by agar dilution method.
A further experiment deals with Proteus mirabilis. Kind of experiment: Antimicrobial activity against extended-spectrum beta-lactamase-positive Proteus mirabilis assessed as percent susceptible isolates by agar dilution method.
A further experiment deals with Pseudomonas aeruginosa. In words: Antimicrobial activity against Pseudomonas aeruginosa assessed as percent susceptible isolates by agar dilution method.
The next experiment deals with Serratia marcescens. Kind of experiment: Antimicrobial activity against Serratia marcescens assessed as percent susceptible isolates by agar dilution method.
Another experiment concerns Pasteurella sp. Kind of experiment: Antimicrobial activity against Pasteurella sp. assessed as percent susceptible isolates by agar dilution method.
In another experiment the test system is Pseudomonas fluorescens. Kind of experiment: Antimicrobial activity against Pseudomonas fluorescens assessed as percent susceptible isolates by agar dilution method.
Experiment [7] relates to Stenotrophomonas maltophilia. In words: Antimicrobial activity against Stenotrophomonas maltophilia assessed as percent susceptible isolates by agar dilution method.
In the next experiment the test system is Acinetobacter sp. Kind of experiment: Antimicrobial activity against Acinetobacter sp. assessed as percent susceptible isolates by agar dilution method.
A further experiment concerns Enterobacteriaceae. In words: Antimicrobial activity against Enterobacteriaceae Extended-Spectrum beta-lactamase positive assessed as percent susceptible isolates by agar dilution method.

Turning to `C[C@@H](O)[C@H]1C(=O)N2C(C(=O)O)=C(SCCNC=N)C[C@H]12` [IMIPENEM ANHYDROUS], the Activity with Citrobacter freundii, in the experiment on Klebsiella aerogenes, in the experiment on Enterobacter cloacae, in the experiment on Escherichia coli [1], with Escherichia coli [2] and in the experiment on Escherichia coli [3] was 100% in each case. Further, the Activity in the experiment with Klebsiella pneumoniae [4] was 99%; in the experiment with Klebsiella pneumoniae [5], 94%; in the experiment on Klebsiella pneumoniae [6], 100%; in the experiment with Klebsiella oxytoca, 100%; in the experiment with Proteus mirabilis, 93%; in the experiment on Pseudomonas aeruginosa it was 78%. Further, the Activity in the experiment on Serratia marcescens was determined as 100%; in the experiment on Pasteurella sp., 69%; with Pseudomonas fluorescens it was 69%; in experiment [7], 69%; in the experiment on Acinetobacter sp., 69%.
Turning to `CO/N=C(\C(=O)N[C@@H]1C(=O)N2C(C(=O)O)=C(COC(C)=O)CS[C@H]12)c1csc(N)n1` [CEFOTAXIME], the Activity in the experiment on Citrobacter freundii amounted to 67%; with Klebsiella aerogenes, 79%; in the experiment with Enterobacter cloacae it was 62%; with Escherichia coli [1] it was 96%; in the experiment with Escherichia coli [2], 38%; in the experiment with Escherichia coli [3] it was 99%. The Activity in the experiment on Klebsiella pneumoniae [4] stood at 85%; in the experiment on Klebsiella pneumoniae [5] it was 19%; in the experiment with Klebsiella pneumoniae [6], 99%; in the experiment with Klebsiella oxytoca, 96%; in the experiment on Proteus mirabilis, 100%; in the experiment with Pseudomonas aeruginosa, 9%. The Activity in the experiment with Serratia marcescens was found to be 100%; in the experiment with Pasteurella sp., 8%; with Pseudomonas fluorescens, 8%; in experiment [7], 8%; in the experiment with Acinetobacter sp., 8%; in the experiment with Enterobacteriaceae it was 6%.
For `CO/N=C(\C(=O)N[C@@H]1C(=O)N2C(C(=O)[O-])=C(C[N+]3(C)CCCC3)CS[C@H]12)c1csc(N)n1`, the Activity in the experiment with Citrobacter freundii is given as 94%; with Klebsiella aerogenes, 100%; in the experiment on Escherichia coli [2], 48%; in the experiment with Klebsiella pneumoniae [4], 91%; in the experiment with Klebsiella pneumoniae [5], 47%; in the experiment with Klebsiella pneumoniae [6], 100%. Further, the Activity with Klebsiella oxytoca worked out at 96%; in the experiment on Proteus mirabilis it was 100%; with Pseudomonas aeruginosa it was 72%; in the experiment with Serratia marcescens, 100%; in the experiment with Pasteurella sp. it was 23%; in the experiment on Pseudomonas fluorescens, 23%. The Activity (in [7]; in the experiment on Acinetobacter sp.) was 23% each time.
For `CO/N=C(\C(=O)N[C@@H]1C(=O)N2C(C(=O)O)=C(CSc3nc(=O)c(O)nn3C)CS[C@H]12)c1csc(N)n1` [CEFTRIAXONE], the Activity in the experiment on Citrobacter freundii stood at 67%; in the experiment on Klebsiella aerogenes it was 79%; in the experiment with Enterobacter cloacae it was 64%; in the experiment with Escherichia coli [1], 96%; in the experiment on Escherichia coli [2], 38%; with Escherichia coli [3], 98%. The Activity in the experiment with Klebsiella pneumoniae [4] was 85%; with Klebsiella pneumoniae [5] it was 19%; in the experiment on Klebsiella pneumoniae [6] it was 99%; with Klebsiella oxytoca, 89%; in the experiment on Proteus mirabilis, 100%; with Pseudomonas aeruginosa it was 17%. In addition, the Activity with Serratia marcescens turned out to be 100%; in the experiment with Pasteurella sp. it was 15%; in the experiment on Pseudomonas fluorescens it was 15%; in experiment [7] it was 15%; in the experiment with Acinetobacter sp. it was 15%; in the experiment with Enterobacteriaceae, 7%.
Turning to `CC(C)(O/N=C(\C(=O)N[C@@H]1C(=O)N2C(C(=O)[O-])=C(C[n+]3ccccc3)CS[C@H]12)c1csc(N)n1)C(=O)O` [CEFTAZIDIME], the Activity in the experiment on Citrobacter freundii was found to be 72%; in the experiment with Klebsiella aerogenes it was 63%; with Enterobacter cloacae, 66%; with Escherichia coli [1], 96%; with Escherichia coli [2], 52%; in the experiment on Escherichia coli [3], 98%. Besides, the Activity with Klebsiella pneumoniae [4] was determined as 86%; with Klebsiella pneumoniae [5], 19%; with Klebsiella pneumoniae [6], 100%; with Klebsiella oxytoca it was 96%; with Proteus mirabilis, 94%; in the experiment with Pseudomonas aeruginosa it was 76%. Besides, the Activity in the experiment on Serratia marcescens was determined as 100%; in the experiment on Pasteurella sp., 32%; in the experiment on Pseudomonas fluorescens, 32%; in experiment [7] it was 32%; in the experiment on Acinetobacter sp., 32%; in the experiment on Enterobacteriaceae, 31%.
As to `NCC[C@H](O)C(=O)N[C@@H]1C[C@H](N)[C@@H](O[C@H]2O[C@H](CN)[C@@H](O)[C@H](O)[C@H]2O)[C@H](O)[C@H]1O[C@H]1O[C@H](CO)[C@@H](O)[C@H](N)[C@H]1O` [AMIKACIN], the Activity in the experiment on Citrobacter freundii is recorded as 100%; in the experiment on Klebsiella aerogenes, 100%; with Enterobacter cloacae, 99%; in the experiment on Escherichia coli [1], 98%; in the experiment with Escherichia coli [2] it was 71%; with Escherichia coli [3], 100%. The Activity was determined as 95% with Klebsiella pneumoniae [4]; 69% in the experiment on Klebsiella pneumoniae [5]; 100% with Klebsiella pneumoniae [6]; 100% in the experiment on Klebsiella oxytoca; 100% in the experiment with Proteus mirabilis; 96% in the experiment on Pseudomonas aeruginosa. Moreover, the Activity in the experiment on Serratia marcescens came out at 100%; with Pasteurella sp., 31%; in the experiment on Pseudomonas fluorescens, 31%; in experiment [7], 31%; in the experiment on Acinetobacter sp., 31%.
As for `C[C@@H](O)[C@H]1C(=O)N2C(C(=O)O)=C(S[C@@H]3CN[C@H](C(=O)Nc4cccc(C(=O)O)c4)C3)[C@H](C)[C@H]12`, the Activity in the experiment with Citrobacter freundii came to 94%; in the experiment on Klebsiella aerogenes, 100%; with Enterobacter cloacae, 92%; with Escherichia coli [1] it was 99%; in the experiment with Escherichia coli [2], 100%; in the experiment with Escherichia coli [3] it was 99%. Moreover, the Activity in the experiment on Klebsiella pneumoniae [4] turned out to be 96%; in the experiment with Klebsiella pneumoniae [5], 78%; with Klebsiella pneumoniae [6] it was 100%; with Klebsiella oxytoca, 100%; in the experiment on Proteus mirabilis it was 100%; in the experiment on Serratia marcescens it was 100%.
With `CO[C@@]1(NC(=O)Cc2cccs2)C(=O)N2C(C(=O)O)=C(COC(N)=O)CS[C@@H]21` [CEFOXITIN], the Activity turned out to be 17% with Citrobacter freundii; 8% in the experiment on Klebsiella aerogenes; 1% in the experiment on Enterobacter cloacae; 93% in the experiment with Escherichia coli [1]; 71% with Escherichia coli [2]; 94% in the experiment with Escherichia coli [3]. Moreover, the Activity with Klebsiella pneumoniae [4] is 84%; in the experiment on Klebsiella pneumoniae [5] it was 66%; in the experiment with Klebsiella pneumoniae [6], 87%; with Klebsiella oxytoca, 96%; with Proteus mirabilis, 100%; in the experiment on Serratia marcescens, 26%.
With `O=C(O)c1cn(C2CC2)c2cc(N3CCNCC3)c(F)cc2c1=O` [CIPROFLOXACIN], the Activity in the experiment with Citrobacter freundii worked out at 72%; with Klebsiella aerogenes, 96%; in the experiment on Escherichia coli [2], 33%; with Escherichia coli [3], 82%; in the experiment with Klebsiella pneumoniae [4], 80%; in the experiment with Klebsiella pneumoniae [5] it was 19%. Moreover, the Activity with Klebsiella oxytoca is reported as 96%; with Proteus mirabilis, 97%; in the experiment on Serratia marcescens, 93%; with Pasteurella sp. it was 15%; in the experiment on Pseudomonas fluorescens, 15%; in experiment [7] it was 15%. In the experiment with Acinetobacter sp., the Activity was found to be 15%.
As for `C[C@H]1COc2c(N3CCN(C)CC3)c(F)cc3c(=O)c(C(=O)O)cn1c23.C[C@H]1COc2c(N3CCN(C)CC3)c(F)cc3c(=O)c(C(=O)O)cn1c23.O` [LEVOFLOXACIN], the Activity was 78% with Citrobacter freundii; 96% in the experiment with Klebsiella aerogenes; 88% in the experiment on Enterobacter cloacae; 81% in the experiment on Escherichia coli [1]; 33% with Escherichia coli [2]; 83% in the experiment on Escherichia coli [3]. The Activity in the experiment on Klebsiella pneumoniae [4] is reported as 84%; in the experiment with Klebsiella pneumoniae [5], 28%; in the experiment on Klebsiella pneumoniae [6], 96%; with Klebsiella oxytoca it was 100%; with Proteus mirabilis, 100%; in the experiment on Pseudomonas aeruginosa, 72%. In addition, the Activity in the experiment on Serratia marcescens is 93%; in the experiment on Pasteurella sp. it was 47%; in the experiment with Pseudomonas fluorescens, 47%; in experiment [7], 47%; with Acinetobacter sp. it was 47%.

(Values after ChEMBL document CHEMBL1629692, “Susceptibility of gram-negative pathogens isolated from patients with complicated intra-abdominal infections in the United States, 2007-2008: results of the Study for Monitoring Antimicrobial Resistance Trends (SMART)” (2010).)
